# Assay results: ChEMBL document CHEMBL3774345, “Synthesis of new diarylamides with pyrimidinyl pyridine scaffold and evaluation of their anti-proliferative effect on cancer cell lines” (Bioorg Med Chem Lett, 2016)
# Tests used:
# [1] = Cytotoxicity against human SNB19 cells after 24 hrs by SRB assay; type: functional; conditions: SNB-19, 24 h
# [2] = Cytotoxicity against human NCI-ADR-RES cells assessed as cell growth at 10^-4 M after 24 hrs by SRB assay; type: functional; conditions: read-out: Activity
# [3] = Cytotoxicity against human COLO205 cells after 24 hrs by SRB assay; type: functional, cell-based; conditions: COLO 205, 24 h
# [4] = Cytotoxicity against human SNB75 cells after 24 hrs by SRB assay; type: functional, cell-based; conditions: SNB-75, 24 h
# [5] = Cytotoxicity against human Caki1 cells assessed as cell growth at 10^-5 M after 24 hrs by SRB assay; type: functional; conditions: CAKI-1, 24 h, read-out: Activity
# MDA-MB-435 [6] = assay: Cytotoxicity against human MDA-MB-435 cells assessed as cell growth at 10^-7 M after 24 hrs by SRB assay; type: functional; conditions: MDA-MB-435, 24 h, read-out: Activity
# [7] = Cytotoxicity against human SNB19 cells assessed as cell growth at 10^-5 M after 24 hrs by SRB assay; type: functional; conditions: SNB-19, 24 h, read-out: Activity
# [8] = Cytotoxicity against human OVCAR4 cells after 24 hrs by SRB assay; type: functional; conditions: OVCAR-4, 24 h
# ACHN [9] = assay: Cytotoxicity against human ACHN cells after 24 hrs by SRB assay; type: functional
# A498 [10] = assay: Cytotoxicity against human A498 cells assessed as cell growth at 10^-4 M after 24 hrs by SRB assay; type: functional; conditions: A498, 24 h, read-out: Activity
# [11] = Cytotoxicity against human OVCAR3 cells assessed as cell growth at 10^-4 M after 24 hrs by SRB assay; type: functional; conditions: OVCAR-3, 24 h, read-out: Activity
# [12] = Cytotoxicity against human HCT116 cells assessed as cell growth at 10^-5 M after 24 hrs by SRB assay; type: functional; conditions: HCT-116, 24 h, read-out: Activity
# MDA-MB-435 [13] = assay: Cytotoxicity against human MDA-MB-435 cells assessed as cell growth at 10^-8 M after 24 hrs by SRB assay; type: functional; conditions: MDA-MB-435, 24 h, read-out: Activity
# [14] = Cytotoxicity against human LOXIMVI cells assessed as cell growth at 10^-4 M after 24 hrs by SRB assay; type: functional; conditions: LOX IMVI, read-out: Activity
# ACHN [15] = assay: Cytotoxicity against human ACHN cells assessed as cell growth at 10^-6 M after 24 hrs by SRB assay; type: functional; conditions: read-out: Activity
# [16] = Cytotoxicity against human SNB75 cells assessed as cell growth at 10^-8 M after 24 hrs by SRB assay; type: functional; conditions: SNB-75, 24 h, read-out: Activity
# [17] = Cytotoxicity against human HCT116 cells assessed as cell growth at 10^-4 M after 24 hrs by SRB assay; type: functional; conditions: HCT-116, 24 h, read-out: Activity
# [18] = Cytotoxicity against human OVCAR8 cells assessed as cell growth at 10^-4 M after 24 hrs by SRB assay; type: functional; conditions: OVCAR-8, 24 h, read-out: Activity
# [19] = Cytotoxicity against human DU145 cells assessed as cell growth at 10^-8 M after 24 hrs by SRB assay; type: functional; conditions: DU-145, 24 h, read-out: Activity
# [20] = Cytotoxicity against human SF539 cells after 24 hrs by SRB assay; type: functional, cell-based; conditions: SF-539, 24 h
# [21] = Cytotoxicity against human SW620 cells assessed as cell growth at 10^-4 M after 24 hrs by SRB assay; type: functional; conditions: SW-620, 24 h, read-out: Activity
# A498 [22] = assay: Cytotoxicity against human A498 cells after 24 hrs by SRB assay; type: functional; conditions: A498, 24 h
# U-251 = assay: Cytotoxicity against human U251 cells assessed as cell growth at 10^-6 M after 24 hrs by SRB assay; type: functional; conditions: U-251, 24 h, read-out: Activity
# [23] = Cytotoxicity against human HCC2998 cells assessed as cell growth at 10^-7 M after 24 hrs by SRB assay; type: functional; conditions: HCC 2998, 24 h, read-out: Activity
# [24] = Cytotoxicity against human HL-60(TB) cells assessed as cell growth at 10^-4 M after 24 hrs by SRB assay; type: functional; conditions: HL-60, 24 h, read-out: Activity
# [25] = Cytotoxicity against human UO31 cells assessed as cell growth at 10^-4 M after 24 hrs by SRB assay; type: functional; conditions: UO-31, 24 h, read-out: Activity
# [26] = Cytotoxicity against human HOP92 cells assessed as cell growth at 10^-8 M after 24 hrs by SRB assay; type: functional; conditions: HOP-92, 24 h, read-out: Activity
# [27] = Cytotoxicity against human SF295 cells assessed as cell growth at 10^-5 M after 24 hrs by SRB assay; type: functional; conditions: SF-295, 24 h, read-out: Activity
# [28] = Cytotoxicity against human HOP92 cells assessed as cell growth at 10^-5 M after 24 hrs by SRB assay; type: functional; conditions: HOP-92, 24 h, read-out: Activity
# SK-MEL-5 = assay: Cytotoxicity against human SK-MEL-5 cells after 24 hrs by SRB assay; type: functional, cell-based; conditions: SK-MEL-5, 24 h
# MDA-MB-231 = assay: Cytotoxicity against human MDA-MB-231 cells after 24 hrs by SRB assay; type: functional, cell-based; conditions: MDA-MB-231, 24 h
# EKVX = assay: Cytotoxicity against human EKVX cells assessed as cell growth at 10^-7 M after 24 hrs by SRB assay; type: functional; conditions: read-out: Activity
# [29] = read-out: LC50 (the source's name)
# [30] = read-out: pLC50 (the source's name) (converted)
smiles,measurement,setting,value
O=C(Nc1cc(-c2cccnc2)nc(NCCCN2CCOCC2)n1)c1cc(Br)cc(C(F)(F)F)c1,GI50,[1]; read-out: GI50,2.5 µM
same,CC50,[1]; [29],21.5 µM
same,TGI,[1]; read-out: TGI,5.75 µM
same,GI50,[1]; read-out: pGI50 (converted),2.51 µM
same,CC50,[1]; [30],21.4 µM
same,TGI,[1]; read-out: pTGI (converted),5.75 µM
same,growth at 100 µM,[2],-77%
same,GI50,[3]; read-out: GI50,1.77 µM
same,CC50,[3]; [29],6.79 µM
same,TGI,[3]; read-out: TGI,3.47 µM
same,GI50,[3]; read-out: pGI50 (converted),1.78 µM
same,CC50,[3]; [30],6.76 µM
same,TGI,[3]; read-out: pTGI (converted),3.47 µM
same,IC50,[4],1.52 µM
same,GI50,[4]; read-out: GI50,1.52 µM
same,CC50,[4]; [29],8.46 µM
same,TGI,[4]; read-out: TGI,3.59 µM
same,GI50,[4]; read-out: pGI50 (converted),1.51 µM
same,CC50,[4]; [30],8.51 µM
same,TGI,[4]; read-out: pTGI (converted),3.55 µM
same,growth at 10 µM,[5],3%
same,growth at 0.1 µM,MDA-MB-435 [6],92%
same,growth at 10 µM,[7],-33%
same,GI50,[8]; read-out: GI50,3.26 µM
same,CC50,[8]; [29],39.9 µM
same,TGI,[8]; read-out: TGI,14.5 µM
same,GI50,[8]; read-out: pGI50 (converted),3.24 µM
same,CC50,[8]; [30],39.8 µM
same,TGI,[8]; read-out: pTGI (converted),14.5 µM
same,GI50,ACHN [9]; read-out: GI50,3.04 µM
same,CC50,ACHN [9]; [29],44.6 µM
same,TGI,ACHN [9]; read-out: TGI,11.3 µM
same,GI50,ACHN [9]; read-out: pGI50 (converted),3.02 µM
same,CC50,ACHN [9]; [30],44.7 µM
same,TGI,ACHN [9]; read-out: pTGI (converted),11.2 µM
same,growth at 100 µM,A498 [10],-91%
same,growth at 100 µM,[11],-100%
same,growth at 10 µM,[12],-44%
same,growth at 0.01 µM,MDA-MB-435 [13],96%
same,growth at 100 µM,[14],-93%
same,growth at 1 µM,ACHN [15],92%
same,growth at 0.01 µM,[16],88%
same,growth at 100 µM,[17],-88%
same,growth at 100 µM,[18],-79%
same,growth at 0.01 µM,[19],103%
same,GI50,[20]; read-out: GI50,1.67 µM
same,CC50,[20]; [29],7.2 µM
same,TGI,[20]; read-out: TGI,3.47 µM
same,GI50,[20]; read-out: pGI50 (converted),1.66 µM
same,CC50,[20]; [30],7.24 µM
same,TGI,[20]; read-out: pTGI (converted),3.47 µM
same,growth at 100 µM,[21],-87%
same,GI50,A498 [22]; read-out: GI50,3.43 µM
same,CC50,A498 [22]; [29],40.5 µM
same,TGI,A498 [22]; read-out: TGI,13.4 µM
same,GI50,A498 [22]; read-out: pGI50 (converted),3.39 µM
same,CC50,A498 [22]; [30],40.7 µM
same,TGI,A498 [22]; read-out: pTGI (converted),13.5 µM
same,growth at 1 µM,U-251,98%
same,growth at 0.1 µM,[23],100%
same,growth at 100 µM,[24],-51%
same,growth at 100 µM,[25],-90%
same,growth at 0.01 µM,[26],80%
same,growth at 10 µM,[27],-66%
same,growth at 10 µM,[28],-10%
same,IC50,SK-MEL-5,1.62 µM
same,GI50,SK-MEL-5; read-out: GI50,1.64 µM
same,CC50,SK-MEL-5; [29],5.56 µM
same,TGI,SK-MEL-5; read-out: TGI,3.02 µM
same,GI50,SK-MEL-5; read-out: pGI50 (converted),1.66 µM
same,CC50,SK-MEL-5; [30],5.62 µM
same,TGI,SK-MEL-5; read-out: pTGI (converted),3.02 µM
same,IC50,MDA-MB-231,1.79 µM
same,GI50,MDA-MB-231; read-out: GI50,1.79 µM
same,CC50,MDA-MB-231; [29],8.65 µM
same,TGI,MDA-MB-231; read-out: TGI,3.93 µM
same,GI50,MDA-MB-231; read-out: pGI50 (converted),1.78 µM
same,CC50,MDA-MB-231; [30],8.71 µM
same,TGI,MDA-MB-231; read-out: pTGI (converted),3.89 µM
same,growth at 0.1 µM,EKVX,80%
